Experimental data published in paper PMC10053857, “Analysis of NSAIDs in Rat Plasma Using 3D-Printed Sorbents by LC-MS/MS: An Approach to Pre-Clinical Pharmacokinetic Studies” (Pharmaceutics, 2023).
Each block holds one compound with its values, some of them ahead of it.

Experiments:
[1] = Stability of analytes in rat plasma (bench-top, autosampler/post-operative, freeze-thaw); type: in vitro ADME; conditions: for Mean Estimated Concentration ± SD, autosampler stability: 15 °C for 24 h; for Mean Estimated Concentration ± SD, bench-top stability: 8 h at ambient temperature; for Mean Estimated Concentration ± SD, three freeze-thaw cycles: each cycle at −20 °C; for mean percentage changes in plasma during bench-top stability, post-operative, and three freeze-thaw cycles: low and high QC
Method: To assess the specificity and selectivity of the validated LC-MS/MS method and to determine the exclusion of endogenous interferences at the retention time of the compound and I.S., a total of six plasma samples and two plasma samples containing 50 ng/mL I.S. solution were subjected to extraction using the 3D sorbent. A calibration curve for rat plasma was constructed for standards over a range of 1–800 ng/mL for acetaminophen and 1–500 ng/mL for indomethacin. The peak area ratio of the drug and I.S. was plotted with a weighing factor of 1/X to assess acetaminophen linearity and linear regression for indomethacin. The minimum detectable concentration of analytes, also known as the lower limit of quantification (LLOQ), was established as the concentration at which the coefficient of variation (CV) is less than 20%, and the accuracy is within the range of 80–120%. Four different concentrations of quality control samples were used for six replicates to determine the intra- and inter-day precision and accuracy. As per the FDA guidelines, CV was limited to <20% for the LLOQ and ≤15% for the LQC, MQC, and HQC. Accuracy was calculated as the percentage difference between the observed and nominal concentrations of the QC samples. A comparison of the peak area ratios of analytes to I.S. of extracted samples (n = 6) and drug solutions of the same concentration was performed to evaluate the extraction recovery of molecules from rat plasma. LQC, MQC, and HQC concentrations were investigated for extraction recovery. The matrix effect of the LQC, MQC, and HQC samples was determined by deproteinizing the blank plasma samples and adding analytes and I.S. to the deproteinized sample. Furthermore, the same analyte concentrations were analyzed in aqueous solutions. The matrix factor was calculated using the following equation: (peak area of post-extracted standard analytes/peak area of the analyte in aqueous solution) × 100. To test the dilution integrity, the range of the standard compound concentrations was increased beyond the calibration range. Plasma samples with 1200 ng/mL of acetaminophen and indomethacin were individually prepared and then diluted two-fold and four-fold using blank plasma. The dilution integrity of concentrations was evaluated with %CV <15%. A series of injections was performed to assess the carry-over effect of acetaminophen and indomethacin. The injections included a blank solvent sample, a higher concentration standard sample, a blank plasma sample extracted with the 3D sorbent, and a higher concentration sample extracted with 3D sorbent from plasma. The thresholds for carry-over effects were 20% of the mean extracted LLOQ signal and 5% of the I.S. response. The stability of acetaminophen and indomethacin in rat plasma was evaluated at six low- and high-quality control sample replicates. Benchtop and post-operative stability studies were conducted at 8 h at ambient temperature and 15 °C for 24 h, respectively. Quality control samples were stored at −20 °C and thawed at room temperature every 24 h for freeze-thaw stability, and after three freeze-thaw cycles, samples were analyzed.

in vivo = experiment: in vivo; parameters: species or system male Sprague-Dawley rats; conditions: male, Sprague-Dawley, rat, po
Method: A 3D sorbent was used as the extraction device to evaluate the in vivo pharmacokinetics of acetaminophen and indomethacin. The Institutional Animal Ethics Committee of the National Institute of Pharmaceutical Education and Research, Guwahati (NIPER/CAF/IAEC/2022/60) approved all the animal experiments. For the pharmacokinetic study, the animal house was kept at a temperature of 25 ± 1 °C with a relative humidity of 50 ± 15%. The rats were maintained on a 12-h dark/light cycle and had free access to food and water. Prior to the study, the animals fasted for 12 h. To minimize variations in drug concentration in the plasma, 18 male Sprague-Dawley rats of similar weight and age were used. Rats were administered 50 mg/kg acetaminophen and 10 mg/kg indomethacin in saline through oral gavage to a different group. Blood samples were collected and thoroughly vortexed at 0.25, 0.50, 1, 2, 4, 6, and 8 h before being centrifuged at 5000 rpm for 20 min at 4 °C. The resulting plasma samples were separated and subjected to analysis using LC-MS/MS. The 3D extraction prototype was used to extract analytes from the plasma by introducing 90 µL of plasma spiked with 10 µL of an internal standard (I.S., 50 ng/mL), making up to 1 mL with deionized water, and adding the 3D extraction device for the adsorption process. After 15 min of adsorption in the vortexes, the remaining residue was collected for further analysis, the prototype was transferred into a fresh microcentrifuge tube, and desorption solvents (water and acetonitrile) were added in a 1:1 (v/v) ratio and vortexed for 15 min. Samples were collected after successful desorption and analyzed using LC-MS/MS.
Male Sprague-Dawley rats (n = 6) were used for pharmacokinetic studies, and oral doses of indomethacin and acetaminophen were separately administered to overnight-fasted rats. Blood was collected through retro-orbital puncture at different time points, and plasma was separated and stored for further analysis. Plasma containing indomethacin and acetaminophen was added to the microcentrifuge tube containing the activated extraction device for adsorption and vortexed for 15 min with 1 mL of water, after which the analytes present in the plasma were bound to the surface of the cartridge. After adsorption for 15 min, the remaining solvent was transferred into a fresh tube and centrifuged to precipitate the matrix. The resulting supernatant was collected and introduced into an LC-MS/MS system to quantify the unbound concentration. The sorbent was transferred into a fresh microcentrifuge tube for desorption using acetonitrile and water and vortexed for 15 min to complete the process. The solution was collected, followed by centrifugation, and the supernatant was filtered through a 0.2µm filter. The resulting filtrate was then subjected to LC-MS/MS analysis to measure the indomethacin and acetaminophen concentration in the plasma.
An investigation into the pharmacokinetics of indomethacin and acetaminophen in rats was conducted through oral administration, employing LC-ESI-MS/MS analysis. Figure 9 illustrates the resulting pharmacokinetic profile, while Table 4 presents the computed pharmacokinetic parameters of both substances, obtained via PK Analysis Add-ins in the Microsoft Excel Program. […] The mean area under the curve (AUC0–t) for indomethacin is 0.93 µg h/mL and for acetaminophen is 32.33 µg h/mL. […] Based on the obtained results, the developed 3D-printed sorbent efficiently extracted analytes from plasma, reduced sample preparation time, and minimized the use of organic solvents during sample preparation.

[2] = acetaminophen, HQC, theoretical 600 ng/mL
[3] = acetaminophen, LQC, theoretical 3 ng/mL
[4] = indomethacin, HQC, theoretical 400 ng/mL
[5] = indomethacin, LQC, theoretical 3 ng/mL

Mean Estimated Concentration ± SD, autosampler stability [1, 2]: 596.26 ± 8.41 ng/mL
Mean Estimated Concentration ± SD, bench-top stability [1, 2]: 592.92 ± 10.80 ng/mL
Mean Estimated Concentration ± SD, three freeze-thaw cycles [1, 2]: 591.92 ± 6.66 ng/mL
Mean Estimated Concentration ± SD, autosampler stability [1, 3]: 2.92 ± 0.15 ng/mL
Mean Estimated Concentration ± SD, bench-top stability [1, 3]: 2.91 ± 0.16 ng/mL
Mean Estimated Concentration ± SD, three freeze-thaw cycles [1, 3]: 3.01 ± 0.09 ng/mL
mean percentage changes in plasma during bench-top stability, post-operative, and three freeze-thaw cycles [1]: within acceptable limits
AUC (in vivo; 50 mg/kg): 32400 ± 10800 ng·h/mL
AUC(0-t) (in vivo; 50 mg/kg): 32300 ± 10800 ng·h/mL
Cmax (in vivo; 50 mg/kg): 27300 ± 9900 ng/mL
Tmax (in vivo; 50 mg/kg): 30 to 60 min
half-life (in vivo; 50 mg/kg): 48.6 ± 6 min
k el (in vivo; 50 mg/kg): 0.000236 s⁻¹
Compound: CC(=O)Nc1ccc(O)cc1 [Acetaminophen]

Mean Estimated Concentration ± SD, autosampler stability [1, 4]: 391.82 ± 6.72 ng/mL
Mean Estimated Concentration ± SD, bench-top stability [1, 4]: 401.61 ± 7.80 ng/mL
Mean Estimated Concentration ± SD, three freeze-thaw cycles [1, 4]: 395.72 ± 13.06 ng/mL
Mean Estimated Concentration ± SD, autosampler stability [1, 5]: 2.99 ± 0.04 ng/mL
Mean Estimated Concentration ± SD, bench-top stability [1, 5]: 2.98 ± 0.11 ng/mL
Mean Estimated Concentration ± SD, three freeze-thaw cycles [1, 5]: 2.96 ± 0.12 ng/mL
mean percentage changes in plasma during bench-top stability, post-operative, and three freeze-thaw cycles [1]: within acceptable limits
AUC (in vivo; 10 mg/kg): 970 ± 200 ng·h/mL
AUC(0-t) (in vivo; 10 mg/kg): 930 ± 170 ng·h/mL
Cmax (in vivo; 10 mg/kg): 330 ± 40 ng/mL
Tmax (in vivo; 10 mg/kg): 30 to 60 min
half-life (in vivo; 10 mg/kg): 107 ± 26.4 min
k el (in vivo; 10 mg/kg): 0.000114 s⁻¹
Compound: COc1ccc2c(c1)c(CC(=O)O)c(C)n2C(=O)c1ccc(Cl)cc1 [Indomethacin]
